According to patent US11530196B2, “Pyrimidine compound acting on EGFR and ERBB2” (CHINA RESOURCES PHARMACEUTICAL HOLDINGS COMPANY LIMITED, priority 2019, dated 2022):

Tests used:
[1] = target: BaF3 ERBB2 A775_G776 ins YVMA (Homo sapiens, UniProt P04626, DUP772-775, cells depend on it); test: Anti-proliferation against Ba/F3 exon 20 insertion mutant cells (ERBB2 YVMA); format: cell-based, mouse; conditions: CTG, 72 hours, read-out: Mutant cells IC50 (anti-proliferation)
From the text: RPMI1640 medium was purchased from Hyclone, FBS fetal bovine serum was purchased from GBICO, and trypsin-EDTA were both purchased from Giboco. DPBS was purchased from Corning, penicillin/streptomycin solution was purchased from Hyclone, and Cell-Titer Glo reagent was purchased from Promega (Cat. No. G7572). Ba/F3 EGFR-D770_N771insSVD, Ba/F3 EGFR-H773_V774insNPH, Ba/F3 EGFR-V769_D770insASV, BaF3 ERBB2 A775_G776 ins YVMA, the cell lines were constructed by Beijing Kang Yuan Bochuang Biotechnology Co., Ltd. Plate reading instrument: Envision (PerkinElmer).
Cells in logarithmic growth phase were harvested and cell counts were performed using a […]. Cell viability was detected by the Taipan Blue rejection assay. The cell concentration was adjusted; the cell suspension was added to a 96-well plate separately. Cells in 96-well plates were incubated overnight at 37° C., 5% CO2, and 95% humidity. […] The cell plate was placed at room temperature to stabilize the cold light signal, and the cold light values were read. The data were analyzed using GraphPad Prism 7.0 software, and a nonlinear S-curve regression was used to fit the data to derive the dose-effect curve from which the IC50 values were calculated. […]

[2] = test system: Ba/F3 (EGFR-D770_N771insSVD) subcutaneous allograft tumor; test: Ba/F3 EGFR D770_N771 ins SVD subcutaneous allograft tumor model; format: in vivo, Nude mouse (BALB/c Nude)
Description: Ba/F3 (EGFR-D770_N771insSVD) cells were artificially constructed cell lines with EGFR-D770_N771insSVD insertion mutation using mouse B cells. The CDX model established by this cell line was used to evaluate the inhibitory effect of preferred compounds on Exon 20 EGFR-D770_N771insSVD insertion mutation in animals.
Nude mouse (BALB/c Nude), Ba/F3 (EGFR-D770_N771insSVD) cell line
1. Cell culture: cells were cultured in vitro in monolayer, culture conditions were RPMI-1640 (cell culture medium) with 10% fetal bovine serum, 100 U/mL penicillin and 100 µg/mL streptomycin, the cells were cultured at a 37° C., 5% CO2 incubator. Conventional digestion with trypsin-EDTA was performed twice a week for passage. When the saturation of Ba/F3 (EGFR-D770_N771insSVD) cell was 80%-90%, and the number reached the requirement, the cells were harvested and counted. The density was 5×10^6 cells.
2. Cell inoculation: 0.2 mL (containing 5×10^6 cells) of Ba/F3 (EGFR-D770_N771insSVD) cell suspension (PBS:Matrigel=1:1) was inoculated subcutaneously on the right back of each mouse, for a total of 64 mice. On the 7th day after inoculation, when the average tumor volume reached 133 mm^3, the randomized stratified grouping method was used to start the grouping administration according to the tumor volume and animal weight. PBS was phosphate buffer and Matrigel was matrix.
3. Administration: The dose was 0-7 days: 10 mg/kg, 8-21 days: 40 mg/kg; oral administration; administration frequency: once a day×3 weeks.
Tumor diameters were measured with vernier calipers twice a week. The calculation formula of tumor volume was: V=0.5a×b^2, wherein a and b represented the long and short diameters of the tumor, respectively.
The antitumor efficacy of the compounds was evaluated by TGI (%) or relative tumor proliferation rate T/C (%).
Relative tumor proliferation rate T/C (%)=TRTV/CRTV×100% (TRTV: mean RTV in the treatment group; CRTV: mean RTV in the solvent control group).
The relative tumor volume (RTV) was calculated according to the results of tumor measurement. The calculation formula was RTV=Vt/V0, wherein V0 was the tumor volume measured at the time of group administration (i.e., D0), and Vt was the tumor volume corresponding to a certain measurement. TRTV and CRTV were taken on the same day.
TGI (%), reflecting the tumor growth inhibition rate. TGI (%)=[(1−(average tumor volume at the end of administration of a treatment group−average tumor volume at the beginning of administration of this treatment group))/(average tumor volume at the end of treatment in the solvent control group−average tumor volume at the beginning of treatment of the solvent control group)]×100%.

[3] = Day 14, oral once a day, 0-7 days 10 mg/kg, 8-21 days 40 mg/kg

Chain of BaF3 ERBB2 A775_G776 ins YVMA (P04626 with tags, fused parts or gaps DUP772-775): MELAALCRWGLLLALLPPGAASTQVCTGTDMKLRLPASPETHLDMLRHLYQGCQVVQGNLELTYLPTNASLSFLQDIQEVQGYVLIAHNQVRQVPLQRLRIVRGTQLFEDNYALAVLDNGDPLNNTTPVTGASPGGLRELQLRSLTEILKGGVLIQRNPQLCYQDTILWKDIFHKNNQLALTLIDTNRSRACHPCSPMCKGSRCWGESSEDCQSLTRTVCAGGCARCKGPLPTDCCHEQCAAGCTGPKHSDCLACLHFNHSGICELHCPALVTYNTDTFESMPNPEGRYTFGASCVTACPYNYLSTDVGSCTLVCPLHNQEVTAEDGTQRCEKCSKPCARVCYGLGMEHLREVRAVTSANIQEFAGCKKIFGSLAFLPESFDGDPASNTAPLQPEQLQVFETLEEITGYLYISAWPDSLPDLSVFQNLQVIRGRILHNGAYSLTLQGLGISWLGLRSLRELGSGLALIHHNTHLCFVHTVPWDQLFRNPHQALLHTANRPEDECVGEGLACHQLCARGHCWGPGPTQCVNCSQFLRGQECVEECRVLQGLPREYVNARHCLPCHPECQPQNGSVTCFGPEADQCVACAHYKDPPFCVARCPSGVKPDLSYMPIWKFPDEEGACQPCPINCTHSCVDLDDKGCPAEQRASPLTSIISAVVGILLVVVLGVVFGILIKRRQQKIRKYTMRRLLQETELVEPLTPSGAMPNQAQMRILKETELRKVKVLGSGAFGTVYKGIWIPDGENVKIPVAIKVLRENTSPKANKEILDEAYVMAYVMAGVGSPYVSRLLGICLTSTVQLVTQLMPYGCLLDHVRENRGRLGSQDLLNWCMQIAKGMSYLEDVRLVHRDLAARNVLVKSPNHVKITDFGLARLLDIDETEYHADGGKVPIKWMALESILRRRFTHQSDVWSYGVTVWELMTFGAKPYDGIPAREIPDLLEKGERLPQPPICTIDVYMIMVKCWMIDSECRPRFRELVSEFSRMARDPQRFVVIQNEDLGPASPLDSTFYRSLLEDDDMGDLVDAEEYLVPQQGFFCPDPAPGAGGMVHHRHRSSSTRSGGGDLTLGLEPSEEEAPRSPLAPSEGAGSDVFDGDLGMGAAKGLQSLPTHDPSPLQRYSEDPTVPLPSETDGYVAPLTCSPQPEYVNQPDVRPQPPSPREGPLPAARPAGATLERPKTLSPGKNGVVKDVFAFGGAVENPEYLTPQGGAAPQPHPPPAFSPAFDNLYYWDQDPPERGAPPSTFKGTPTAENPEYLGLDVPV

C=CC(=O)Nc1cc(Nc2ncc(C(=O)OC(C)C)c(-c3cn(OC)c4ccccc34)n2)c(OC)cc1N(C)CCN(C)C.CS(=O)(=O)O [Compound 1]
GI50 [1]: 0.037 µM
Tumor volume (Day 0) ([2]; Day 0 (grouping), mean ± standard error, n = 6): 133.2 ± 8.2 mm^3
RTV [2, 3]: 1.9
T/C [2, 3]: 14.9%
TGI [2, 3]: 92.1%
Tumor volume (Day 14) [2, 3]: 259.1 ± 35.2 mm^3
